According to PubChem BioAssay (NCI):
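Dose response: 5 concentrations. Exposure: 48 h. Format: 96-well plates. Endpoint: linear interpolation; highest concentration if not reached. GI50: concentration for 50% inhibition of growth. TGI: concentration producing complete growth inhibition.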

Assays:
Assay in all cases: NCI-60 cell line screen, 48 h
OVCAR-5 ovarian = test system: OVCAR-5 ovarian
COLO 205 colon = test system: COLO 205 colon
MDA-MB-231 breast = test system: MDA-MB-231 breast
PC-3 prostate = test system: PC-3 prostate
SF-268 CNS = test system: SF-268 CNS
A549 NSCLC = test system: A549 NSCLC
M14 melanoma = test system: M14 melanoma
BT-549 breast = test system: BT-549 breast
HT29 colon = test system: HT29 colon
RPMI-8226 leukemia = test system: RPMI-8226 leukemia
EKVX NSCLC = test system: EKVX NSCLC
MDA-MB-435 = test system: MDA-MB-435
SW-620 colon = test system: SW-620 colon
RXF 393 renal = test system: RXF 393 renal
CAKI-1 renal = test system: CAKI-1 renal
ACHN renal = test system: ACHN renal
SK-MEL-5 melanoma = test system: SK-MEL-5 melanoma
SK-MEL-2 melanoma = test system: SK-MEL-2 melanoma
LOX IMVI melanoma = test system: LOX IMVI melanoma
SK-OV-3 ovarian = test system: SK-OV-3 ovarian
UACC-257 melanoma = test system: UACC-257 melanoma
MCF7 breast = test system: MCF7 breast
NCI-H460 lung = test system: NCI-H460 lung
SNB-19 CNS = test system: SNB-19 CNS
HCC-2998 colon = test system: HCC-2998 colon
UACC-62 melanoma = test system: UACC-62 melanoma
T-47D breast = test system: T-47D breast
NCI-H23 lung = test system: NCI-H23 lung
786-0 renal = test system: 786-0 renal

Work on Nc1ncnc2c1c(C(=O)NO)cn2C1OC(CO)C(O)C1O (centres undefined) yielded a GI50 (OVCAR-5 ovarian) of 604 nM, a GI50 (COLO 205 colon) of 279 nM and a TGI (COLO 205 colon) of 1550 nM. It also gave a GI50 (MDA-MB-231 breast) of 464 nM, a TGI (MDA-MB-231 breast) of 5320 nM and a GI50 (PC-3 prostate) of 286 nM. The TGI (PC-3 prostate) was greater than 41900 nM, the GI50 (SF-268 CNS) was 397 nM and the GI50 (A549 NSCLC) was 462 nM. For the same compound, the TGI (A549 NSCLC) was greater than 40400 nM, the GI50 (M14 melanoma) was 285 nM and the TGI (M14 melanoma) was 1530 nM. For the same compound, the GI50 (BT-549 breast) was 426 nM, the TGI (BT-549 breast) was 19200 nM and the GI50 (HT29 colon) was 390 nM. The TGI (HT29 colon) was greater than 100000 nM, the GI50 (RPMI-8226 leukemia) was 282 nM and the GI50 (EKVX NSCLC) was 776 nM. For the same compound, the TGI (EKVX NSCLC) was 15700 nM, the GI50 (MDA-MB-435) was 363 nM and the TGI (MDA-MB-435) was 1900 nM. It also gave a GI50 (SW-620 colon) of 252 nM, a TGI (SW-620 colon) greater than 31700 nM and a GI50 (RXF 393 renal) of 331 nM. For the same compound, the GI50 (CAKI-1 renal) was 213 nM, the TGI (CAKI-1 renal) was 2500 nM and the GI50 (ACHN renal) was 203 nM. It also gave a TGI (ACHN renal) of 1150 nM, a GI50 (SK-MEL-5 melanoma) of 739 nM and a TGI (SK-MEL-5 melanoma) of 2150 nM. The GI50 (SK-MEL-2 melanoma) was 333 nM, the TGI (SK-MEL-2 melanoma) was 1920 nM and the GI50 (LOX IMVI melanoma) was 262 nM. The TGI (LOX IMVI melanoma) was 1770 nM, the GI50 (SK-OV-3 ovarian) was 239 nM and the TGI (SK-OV-3 ovarian) was 2070 nM. It also gave a GI50 (UACC-257 melanoma) of 522 nM, a TGI (UACC-257 melanoma) of 3520 nM and a GI50 (MCF7 breast) of 213 nM. It also gave a TGI (MCF7 breast) of 1690 nM, a GI50 (NCI-H460 lung) of 431 nM and a TGI (NCI-H460 lung) of 9190 nM. It also gave a GI50 (SNB-19 CNS) of 847 nM, a TGI (SNB-19 CNS) greater than 100000 nM and a GI50 (HCC-2998 colon) of 587 nM. The TGI (HCC-2998 colon) was 6830 nM, the GI50 (UACC-62 melanoma) was 320 nM and the TGI (UACC-62 melanoma) was 1190 nM. It also gave a GI50 (T-47D breast) of 88.5 nM, a TGI (T-47D breast) of 1390 nM and a GI50 (NCI-H23 lung) of 329 nM. It also gave a TGI (NCI-H23 lung) of 2890 nM, a GI50 (786-0 renal) of 630 nM and a TGI (786-0 renal) of 14200 nM.
